Results taken from PubChem BioAssay (NCI).
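Five compound concentrations were applied to cells in 96-well plates for 48 hours; endpoints were derived by simple linear interpolation of the resulting dose-response curve. TGI is the concentration that stops growth completely.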

What was measured:
Test in all cases: inhibition of tumour cell growth, NCI panel, 48 h
786-0 renal = system: 786-0 renal
A498 renal = system: A498 renal
A549 NSCLC = system: A549 NSCLC
ACHN renal = system: ACHN renal
CAKI-1 renal = system: CAKI-1 renal
CCRF-CEM leukemia = system: CCRF-CEM leukemia
COLO 205 colon = system: COLO 205 colon
DLD-1 colon = system: DLD-1 colon
DMS 273 small cell lung = system: DMS 273 small cell lung
EKVX NSCLC = system: EKVX NSCLC
HCC-2998 colon = system: HCC-2998 colon
HCT-116 colon = system: HCT-116 colon
HCT-15 colon = system: HCT-15 colon
HL-60(TB) leukemia = system: HL-60(TB) leukemia
HOP-18 NSCLC = system: HOP-18 NSCLC
HOP-62 NSCLC = system: HOP-62 NSCLC
HOP-92 NSCLC = system: HOP-92 NSCLC
HT29 colon = system: HT29 colon
IGROV1 ovarian = system: IGROV1 ovarian
KM12 colon = system: KM12 colon
KM20L2 colon = system: KM20L2 colon
LOX IMVI melanoma = system: LOX IMVI melanoma
LXFL 529 NSCLC = system: LXFL 529 NSCLC
M14 melanoma = system: M14 melanoma
M19-MEL melanoma = system: M19-MEL melanoma
MALME-3M melanoma = system: MALME-3M melanoma
MOLT-4 leukemia = system: MOLT-4 leukemia
NCI-H226 lung = system: NCI-H226 lung
NCI-H460 lung = system: NCI-H460 lung
NCI-H522 lung = system: NCI-H522 lung
OVCAR-3 ovarian = system: OVCAR-3 ovarian
OVCAR-4 ovarian = system: OVCAR-4 ovarian
OVCAR-5 ovarian = system: OVCAR-5 ovarian
OVCAR-8 ovarian = system: OVCAR-8 ovarian
RPMI-8226 leukemia = system: RPMI-8226 leukemia
RXF 393 renal = system: RXF 393 renal
SF-268 CNS = system: SF-268 CNS
SF-295 CNS = system: SF-295 CNS
SF-539 CNS = system: SF-539 CNS
SK-MEL-28 melanoma = system: SK-MEL-28 melanoma
SK-MEL-5 melanoma = system: SK-MEL-5 melanoma
SK-OV-3 ovarian = system: SK-OV-3 ovarian
SN12C renal = system: SN12C renal
SNB-19 CNS = system: SNB-19 CNS
SNB-75 CNS = system: SNB-75 CNS
SNB-78 CNS = system: SNB-78 CNS
SR leukemia = system: SR leukemia
SW-620 colon = system: SW-620 colon
TK-10 renal = system: TK-10 renal
U251 CNS = system: U251 CNS
UACC-257 melanoma = system: UACC-257 melanoma
UACC-62 melanoma = system: UACC-62 melanoma
UO-31 renal = system: UO-31 renal
DMS 114 small cell lung = system: DMS 114 small cell lung
K-562 leukemia = system: K-562 leukemia
NCI-H23 lung = system: NCI-H23 lung
SK-MEL-2 melanoma = system: SK-MEL-2 melanoma

Measured: TGI

O=C1C=CC2(CCCCCCC2=O)CC1 (stereo not drawn)
> 100 µM: 786-0 renal | A498 renal | A549 NSCLC | ACHN renal | CAKI-1 renal | CCRF-CEM leukemia | COLO 205 colon | DLD-1 colon | DMS 273 small cell lung | EKVX NSCLC | HCC-2998 colon | HCT-116 colon | HCT-15 colon | HL-60(TB) leukemia | HOP-18 NSCLC | HOP-62 NSCLC | HOP-92 NSCLC | HT29 colon | IGROV1 ovarian | KM12 colon | KM20L2 colon | LOX IMVI melanoma | LXFL 529 NSCLC | M14 melanoma | M19-MEL melanoma | MALME-3M melanoma | MOLT-4 leukemia | NCI-H226 lung | NCI-H460 lung | NCI-H522 lung | OVCAR-3 ovarian | OVCAR-4 ovarian | OVCAR-5 ovarian | OVCAR-8 ovarian | RPMI-8226 leukemia | RXF 393 renal | SF-268 CNS | SF-295 CNS | SF-539 CNS | SK-MEL-28 melanoma | SK-MEL-5 melanoma | SK-OV-3 ovarian | SN12C renal | SNB-19 CNS | SNB-75 CNS | SNB-78 CNS | SR leukemia | SW-620 colon | TK-10 renal | U251 CNS | UACC-257 melanoma | UACC-62 melanoma | UO-31 renal

O=C(Nc1ccccc1[N+](=O)[O-])/C(=N/Nc1cccc(Cl)c1)c1c(O)c2ccccc2oc1=O
> 100 µM: 786-0 renal | A498 renal | A549 NSCLC | ACHN renal | CAKI-1 renal | DLD-1 colon | DMS 273 small cell lung | EKVX NSCLC | HCC-2998 colon | HCT-15 colon | HOP-18 NSCLC | HT29 colon | IGROV1 ovarian | K-562 leukemia | KM12 colon | KM20L2 colon | LOX IMVI melanoma | LXFL 529 NSCLC | M14 melanoma | M19-MEL melanoma | MALME-3M melanoma | MOLT-4 leukemia | NCI-H226 lung | NCI-H23 lung | NCI-H460 lung | NCI-H522 lung | OVCAR-3 ovarian | OVCAR-4 ovarian | OVCAR-5 ovarian | RXF 393 renal | SF-268 CNS | SF-295 CNS | SF-539 CNS | SK-MEL-2 melanoma | SK-MEL-28 melanoma | SK-MEL-5 melanoma | SK-OV-3 ovarian | SNB-19 CNS | SNB-75 CNS | SW-620 colon | TK-10 renal | UACC-257 melanoma | UACC-62 melanoma | UO-31 renal
87.5 µM: CCRF-CEM leukemia
47.6 µM: COLO 205 colon
2.67 µM: SR leukemia
53.8 µM: DMS 114 small cell lung
53.6 µM: HCT-116 colon
96.5 µM: HOP-92 NSCLC

CC1=C(C(=O)Nc2cccc(Cl)c2)C(c2ccccc2O)C(C(=O)Nc2cccc(Cl)c2)=C(C)N1
37.9 µM: SF-268 CNS
47.6 µM: EKVX NSCLC
31.9 µM: RXF 393 renal | SK-MEL-28 melanoma
34.1 µM: NCI-H522 lung
43.2 µM: COLO 205 colon
50.2 µM: CCRF-CEM leukemia
37 µM: HOP-92 NSCLC
39.5 µM: TK-10 renal
43.3 µM: CAKI-1 renal
52.1 µM: SNB-19 CNS
29.2 µM: 786-0 renal
41.4 µM: U251 CNS
37.7 µM: KM20L2 colon
39.3 µM: LXFL 529 NSCLC
54.4 µM: SK-OV-3 ovarian
39 µM: SN12C renal
33.1 µM: HCC-2998 colon | NCI-H226 lung | NCI-H23 lung
31.5 µM: SK-MEL-5 melanoma
59.2 µM: MOLT-4 leukemia
36.6 µM: UACC-257 melanoma
46.4 µM: NCI-H460 lung
60.1 µM: OVCAR-8 ovarian
43 µM: SNB-75 CNS
48.1 µM: HL-60(TB) leukemia
35.7 µM: HT29 colon
38 µM: A498 renal
53.8 µM: ACHN renal
57.2 µM: SNB-78 CNS
70.7 µM: IGROV1 ovarian
54.6 µM: DMS 114 small cell lung
35.6 µM: OVCAR-4 ovarian
46 µM: RPMI-8226 leukemia
43.8 µM: A549 NSCLC
31.2 µM: KM12 colon
38.6 µM: MALME-3M melanoma | OVCAR-5 ovarian
33 µM: DLD-1 colon
53.7 µM: K-562 leukemia
40.6 µM: M19-MEL melanoma | SF-295 CNS
34.3 µM: SF-539 CNS
39.7 µM: LOX IMVI melanoma
40 µM: OVCAR-3 ovarian
31.7 µM: M14 melanoma
31.3 µM: UO-31 renal
35.8 µM: SW-620 colon
32.2 µM: SK-MEL-2 melanoma
39.8 µM: HOP-62 NSCLC

CC(=O)OCCOCn1c2ccccc2c2c3c(c4c5ccccc5n(COCCOC(C)=O)c4c21)C(=O)N(Cc1ccccc1)C3=O
> 100 µM: 786-0 renal | A498 renal | A549 NSCLC | ACHN renal | CCRF-CEM leukemia | COLO 205 colon | DLD-1 colon | DMS 273 small cell lung | EKVX NSCLC | HCC-2998 colon | HCT-116 colon | HCT-15 colon | HL-60(TB) leukemia | HOP-62 NSCLC | HOP-92 NSCLC | HT29 colon | IGROV1 ovarian | K-562 leukemia | KM20L2 colon | LOX IMVI melanoma | LXFL 529 NSCLC | M14 melanoma | M19-MEL melanoma | MALME-3M melanoma | MOLT-4 leukemia | NCI-H226 lung | NCI-H23 lung | NCI-H460 lung | OVCAR-4 ovarian | OVCAR-5 ovarian | OVCAR-8 ovarian | RPMI-8226 leukemia | RXF 393 renal | SF-268 CNS | SF-539 CNS | SK-MEL-2 melanoma | SK-MEL-28 melanoma | SK-MEL-5 melanoma | SK-OV-3 ovarian | SN12C renal | SNB-19 CNS | SNB-75 CNS | SNB-78 CNS | SW-620 colon | TK-10 renal | U251 CNS | UACC-257 melanoma | UACC-62 melanoma | UO-31 renal
